The source made the active and inactive calls. The rule behind the calls is not given here.
Legend:
Escherichia coli [1] = test: Antimicrobial activity against Escherichia coli ATCC 25922 assessed as inhibition of bacterial growth incubated for 18 hrs by CLSI based method; format: functional
Staphylococcus aureus = test: Antimicrobial activity against Staphylococcus aureus ATCC 29213 assessed as inhibition of bacterial growth incubated for 18 hrs by CLSI based method; format: functional
Erythrocyte = test: Hemolytic activity in human red blood cells assessed as induction of hemoglobin release incubated for 4 hrs by microplate reader based assay; format: cell-based
Cell membrane [2] = test: Induction of outer membrane permeability in Escherichia coli assessed as periplasmic-beta-lactamase release at 5 uM using CENTA; format: subcellular
Cell membrane [3] = test: Induction of inner membrane permeability in Escherichia coli assessed as cytoplasmic beta-galactosidase release at 5 uM using ONPG
Cell membrane [4] = test: Induction of inner membrane permeability in Escherichia coli at 5 uM incubated for 1 hr by SYTOX Green-staining based flow cytometry analysis; format: subcellular
Cell membrane [5] = test: Induction of outer membrane re-arragenemnts in Escherichia coli ATCC 25922 incubated for 4 mins by NPN uptake assay; format: subcellular
Cell membrane [6] = test: Induction of outer membrane re-arragenemnts in Escherichia coli D21f2 incubated for 4 mins by NPN uptake assay; format: subcellular
Escherichia coli [7] = test: Induction of cell lysis in Escherichia coli at 5 uM by transmission electron microscopy; format: functional, organism-based
[8] = Induction of cell membrane permeability in POPE/POPG assessed as calcein leakage at 2 to 8 uM; conditions: dose microM 2-8
Cell membrane [9] = test: Induction of cell membrane fluidity changes in Escherichia coli ATCC 25922 by Laurdan-dye based fluorescence assay; format: subcellular
Escherichia coli [10] = test: Antimicrobial activity against Escherichia coli ATCC 25922 assessed as reduction in cell viability at 10 to 10000 uM by propidium iodide staining based assay; format: functional, organism-based; conditions: dose microM 10-10000
Cell membrane [11] = test: Induction of membrane permeability in Escherichia coli assessed as increase in fine surface roughness at 25 uM by atomic force microscopy; format: subcellular
Escherichia coli [12] = test: Induction of cell killing in Escherichia coli assessed as time needed for bacterial destruction at 128 ug/ml; format: functional; conditions: dose 128 µg/ml
Escherichia coli [13] = test: Binding affinity to outer membrane in POPE/POPG lipid layers containing LPS by SPR assay
Escherichia coli [14] = test: Binding affinity to inner membrane using POPE/POPG (7/3) by SPR assay
Escherichia coli [15] = test: Binding affinity to cell membrane using POPC/cholesterol (8/2) by SPR assay

Molecule | MIC (Escherichia coli [1]) [µM] | MIC (Staphylococcus aureus) [µM] | HC10 (Erythrocyte) [µM] | Activity (Cell membrane [2]) | Activity (Cell membrane [3]) | Activity (Cell membrane [4]) | Activity (Cell membrane [5]) | Activity (Cell membrane [6]) | also measured
Ac-KLLKLPKKLLKLLK-NH2 | ≥ 80 | > 80 | 640 | inactive | inactive | inactive | Active | inactive | 
Ac-KLPKLLKKLLKLLK-NH2 | 10 | 10 | 10 |  |  |  |  |  | 
Ac-KLLKLLKPLLKLLK-NH2 | 10 | 2.5 | 2.5 |  |  |  |  |  | 
Ac-KPLKLLKKLLKLLK-NH2 | 5 | 5 | 5 |  |  |  |  |  | 
Ac-LKKLLKLLPKLLKL-NH2 | 5 | 2.5 | 5 | inactive | inactive | inactive | Active | inactive | Activity (Escherichia coli [7]): Active; Activity [8]: inactive
Ac-KLLKLLKKLLKLLK-NH2 | 20 | 10 | 0.625 |  |  |  |  |  | 
Ac-KLLKLLKKLPKLLK-NH2 | 40 | 40 | 80 |  |  |  |  |  | 
Ac-LKKPLKLGKKLLKL-NH2 | 5 | 40 | 160 |  |  |  |  |  | 
Ac-LKKLLKLPKKLLKL-NH2 | 40 | > 80 | 640 | inactive | inactive | inactive | Active | inactive | 
COLISTIN |  |  |  | inactive | inactive | inactive | Active | inactive | Activity (Cell membrane [9]): Active; Activity (Escherichia coli [10]): Active
Ac-LKKLLKLLKPLLKL-NH2 | 5 | 2.5 | 5 |  |  |  |  |  | 
Ac-LKKLPKLSKKLLKL-NH2 | 2.5 | 10 | 80 |  |  |  |  |  | 
H-KLAKLAKKPLKLAK-OH |  |  |  | inactive | inactive | inactive | Active | inactive | Activity (Cell membrane [11]): inactive
Ac-KLLKLLPKLLKLLK-NH2 | 10 | 5 | 5 |  |  |  |  |  | 
Ac-KLLKLLKKLLKLPK-NH2 | 10 | 10 | 40 |  |  |  |  |  | 
H-LKKLLKLLKKPLKL-NH2 | 20 | 40 | 320 | inactive | inactive | inactive | Active | inactive | 
CC[C@H](C)[C@H](NC(=O)CN)C(=O)NCC(=O)N[C@@H](C)C(=O)N[C@H](C(=O)N[C@@H](CC(C)C)C(=O)N[C@@H](CCCCN)C(=O)N[C@H](C(=O)N[C@@H](CC(C)C)C(=O)N[C@H](C(=O)N[C@H](C(=O)NCC(=O)N[C@@H](CC(C)C)C(=O)N1CCC[C@H]1C(=O)N[C@@H](C)C(=O)N[C@@H](CC(C)C)C(=O)N[C@H](C(=O)N[C@@H](CO)C(=O)N[C@@H](Cc1c[nH]c2ccccc12)C(=O)N[C@H](C(=O)N[C@@H](CCCCN)C(=O)N[C@@H](CCCNC(=N)N)C(=O)N[C@@H](CCCCN)C(=O)N[C@@H](CCCNC(=N)N)C(=O)N[C@@H](CCC(N)=O)C(=O)N[C@@H](CCC(N)=O)C(N)=O)[C@@H](C)CC)[C@@H](C)CC)[C@@H](C)O)[C@@H](C)O)C(C)C)C(C)C [MELITTIN] |  |  |  | inactive | inactive | inactive | Active | inactive | Time (Escherichia coli [12]): 4 h
Ac-KLLKLLKKLLKPLK-NH2 | 20 | 10 | 40 |  |  |  |  |  | 
Ac-LKKLLKLLKKLLKL-NH2 | 10 | 10 | 5 |  |  |  |  |  | 
Ac-LKKLLKLLKKLPKL-NH2 | 5 | 10 | 40 | inactive | inactive | inactive | Active | inactive | Activity (Escherichia coli [7]): Active; Activity [8]: inactive; Activity (Escherichia coli [13]): inactive; Activity (Escherichia coli [14]): Active; Activity (Escherichia coli [15]): inactive
Ac-LKKLLPLLKKLLKL-NH2 | 10 | 2.5 | 1.25 |  |  |  |  |  | 
Ac-KLLKPLKKLLKLLK-NH2 | 20 | 20 | 80 |  |  |  |  |  | 
Ac-LKKLLKPLKKLLKL-NH2 | 20 | 20 | 160 |  |  |  |  |  | 

Source: ChEMBL document CHEMBL4699652, “Proline Hinged Amphipathic α-Helical Peptide Sensitizes Gram-Negative Bacteria to Various Gram-Positive Antibiotics” (J Med Chem, 2020)
